# Measured values as given in article PMC2359919, “Molecular targeting of retinoic acid metabolism in neuroblastoma: the role of the CYP26 inhibitor R116010 in vitro and in vivo” (British Journal of Cancer, 2007).
# Tests used:
# [1] = Pharmacokinetic analysis of RA in an SH-SY5Y xenograft model (retinoid concentrations in plasma, liver, tumour by LC/MS); format: in vivo, CD-1 nude mice; conditions: for % Total retinoids, tumour, 0.5 h / Tumour concentration, 0.5 h / % Total retinoids, tumour, 2 h / Tumour concentration, 2 h / % Total retinoids, tumour, 6 h / Tumour concentration, 6 h: SH-SY5Y tumour; for % Total retinoids, tumour, 0.5 h / Tumour concentration, 0.5 h / % Total retinoids, tumour, 2 h / Tumour concentration, 2 h / % Total retinoids, tumour, 6 h / Tumour concentration, 6 h / % Total retinoids, liver, 0.5 h / Liver concentration, 0.5 h / % Total retinoids, liver, 2 h / Liver concentration, 2 h / % Total retinoids, liver, 6 h / Liver concentration, 6 h / % Total retinoids, plasma, 0.5 h / Plasma concentration, 0.5 h / % Total retinoids, plasma, 2 h / Plasma concentration, 2 h / % Total retinoids, plasma, 6 h / Plasma concentration, 6 h: label = retinoid measured; for Plasma % of total retinoids at all time points: 0.5, 2 and 6 h
# Protocol: (§1) All in vivo experiments were approved by the relevant institutional animal welfare committees, and performed according to national law. Female athymic nude mice (CD-1 nu/nu, Charles River) used for antitumour studies were maintained and handled in isolators, under specific pathogen-free conditions, at 24°C with a 12 h light, 12 h dark cycle. Tumours were generated by implantation of SH-SY5Y cells subcutaneously (s.c.) into one flank of CD-1 nude mice (1 × 10^7 cells per animal).
# (§2) Treatments began when the tumours were between 7 and 10 mm in length and breadth. Retinoids and R116010 were initially dissolved in DMSO before 10- or 20-fold dilutions in PBS, respectively. For pharmacokinetic studies, the animals were dosed with ATRA or 13cisRA (each 100 mg kg^−1) orally for 0.5, 2 and 6 h. For metabolism studies, animals were treated with R116010 orally at doses of 1.25 or 2.5 mg kg^−1 either immediately before the retinoid being studied, or up to three times (over 1–2 days) before dosing with the retinoid. At termination of experiments, animals were bled under terminal anaesthesia then killed by cervical dislocation. Plasma was immediately removed from the blood by centrifugation at 1000 g for 5 min and snap-frozen in liquid nitrogen in amber Eppendorfs. Tumour and liver samples were removed and snap-frozen, wrapped in foil, in liquid nitrogen.
# (§3) Cell pellets obtained from retinoid incubations were re-suspended in 2 ml cell culture medium and disrupted by passing the samples several times through a syringe and hypodermic needle (25G × 1 inches, 0.5 mm × 25 mm; Terumo, Somerset, NJ, USA). Tumour and liver tissues were re-suspended in PBS and homogenised (T25 homogeniser, IKA Laboratories, Staufen, Germany). Retinoids were extracted as described previously ([Veal et al, 2002]; [Armstrong et al, 2005b]). Samples were reconstituted in 200 μl mobile phase A (n-hexane:dichloromethane:propan-2-ol, 400 : 1 : 0.27) and analysed by normal-phase HPLC as described previously ([Veal et al, 2002]). For LC/MS analysis, samples were reconstituted in 200 μl mobile phase A (50% acetonitrile, 50% (0.2%) acetic acid, v v^−1).
# (§4) Resolution of retinoids was performed with a Luna C18(2) column (3 μm, 50 mm × 2 mm) using a Perkin Elmer LC (Beaconsfield, UK) system, consisting of a vacuum degasser, two series 200 pumps, a thermostatically controlled series 200 autosampler and a Waters 2487 UV absorbance detector. Retinoic isomers and metabolites were separated by gradient reversed-phase chromatography. An injection volume of 20 μl with a flow rate of 0.2 ml min^−1 was used with mobile phase A (50% acetonitrile, 50% (0.2%) acetic acid, v v^−1) and mobile phase B (acetonitrile, 0.1% acetic acid, v v^−1). Linear gradients were employed between the specified times as follows: 0, 100% A; 5 min, 100% A; 15 min, 100% B; 20 min, 100% B; 23 min, 100% A; 35 min, 100% A. An Applied Biosystems (Warrington, UK) API-2000 LC/MS/MS triple Q (quadrupole) mass spectrometer with electrospray ionisation source, controlled by Analyst software, was operated in single quadrupole negative mode for the detection of compounds.
# [2] = test system: RA metabolism; assay: Effect of R116010 on retinoid concentrations (plasma, liver, tumour) in an SH-SY5Y xenograft model, LC/MS; format: in vivo, CD-1 nude mice; conditions: ATRA-treated mice (100 mg kg^−1) without or with R116010; 6 h
# Protocol: as §1, §2, §3, §4
# [3] = test system: CYP26; design: method as in Njar et al, 2006; conditions: ref Njar et al, 2006; cited from earlier work
# [4] = after 13cisRA 100 mg kg^−1 oral
Structure (SMILES),"% Total retinoids, tumour, 0.5 h [1, 4]","Tumour concentration, 0.5 h [1, 4]","% Total retinoids, tumour, 2 h [1, 4]","Tumour concentration, 2 h [1, 4]","% Total retinoids, tumour, 6 h [1, 4]","Tumour concentration, 6 h [1, 4]","% Total retinoids, liver, 0.5 h [1, 4]","Liver concentration, 0.5 h [1, 4]","% Total retinoids, liver, 2 h [1, 4]","Liver concentration, 2 h [1, 4]","% Total retinoids, liver, 6 h [1, 4]","Liver concentration, 6 h [1, 4]","% Total retinoids, plasma, 0.5 h [1, 4]","Plasma concentration, 0.5 h [1, 4]","% Total retinoids, plasma, 2 h [1, 4]","Plasma concentration, 2 h [1, 4]","% Total retinoids, plasma, 6 h [1, 4]","Plasma concentration, 6 h [1, 4]","% Total retinoids, tumour, 0.5 h ([1]; after ATRA 100 mg kg^−1 oral)","Tumour concentration, 0.5 h ([1]; after ATRA 100 mg kg^−1 oral)",other results
"CC1=C(/C=C/C(C)=C/C=C/C(C)=C\C(=O)O)C(C)(C)CCC1=O [13cis-4-oxoRA, 13-cis-4-oxo-RA]",3%,0.06 ± 0.02 µg/g,2%,0.04 ± 0.0 µg/g,19%,0.11 ± 0.05 µg/g,18%,0.89 ± 0.22 µg/g,33%,1.33 ± 0.08 µg/g,69%,3.79 ± 0.99 µg/g,2%,270 ± 110 nM,3%,630 ± 100 nM,20%,1220 ± 240 nM,0%,0 µg/g,"Liver concentration, 6 h ([1]; after 13cisRA 100 mg kg^−1 oral, listed as 13cis-4-oxo-RA): 3.79 µg/g; Plasma % of total retinoids at all time points ([1]; after ATRA 100 mg kg^−1): < 10%; % Total retinoids, tumour, 2 h ([1]; after ATRA 100 mg kg^−1 oral): 0%; Tumour concentration, 2 h ([1]; after ATRA 100 mg kg^−1 oral): 0 µg/g; % Total retinoids, tumour, 6 h ([1]; after ATRA 100 mg kg^−1 oral): 0%; Tumour concentration, 6 h ([1]; after ATRA 100 mg kg^−1 oral): 0 µg/g; % Total retinoids, liver, 0.5 h ([1]; after ATRA 100 mg kg^−1 oral): 1%; Liver concentration, 0.5 h ([1]; after ATRA 100 mg kg^−1 oral): 0.06 ± 0.03 µg/g; % Total retinoids, liver, 2 h ([1]; after ATRA 100 mg kg^−1 oral): 1%; Liver concentration, 2 h ([1]; after ATRA 100 mg kg^−1 oral): 0.09 ± 0.02 µg/g; % Total retinoids, liver, 6 h ([1]; after ATRA 100 mg kg^−1 oral): 4%; Liver concentration, 6 h ([1]; after ATRA 100 mg kg^−1 oral): 0.22 ± 0.09 µg/g; % Total retinoids, plasma, 0.5 h ([1]; after ATRA 100 mg kg^−1 oral): <1%; Plasma concentration, 0.5 h ([1]; after ATRA 100 mg kg^−1 oral): 30 ± 10 nM; % Total retinoids, plasma, 2 h ([1]; after ATRA 100 mg kg^−1 oral): <1%; Plasma concentration, 2 h ([1]; after ATRA 100 mg kg^−1 oral): 20 ± 10 nM; % Total retinoids, plasma, 6 h ([1]; after ATRA 100 mg kg^−1 oral): <1%; Plasma concentration, 6 h ([1]; after ATRA 100 mg kg^−1 oral): 50 ± 30 nM; Plasma 13cis-4-oxo-RA [2]: not detectable"
Clc1cccc(C(c2ccc3[nH]cnc3c2)n2ccnc2)c1 (stereo not drawn) [liarozole],,,,,,,,,,,,,,,,,,,,,Ability to inhibit CYP26 [3]: only moderate ability to inhibit CYP26
"CC1=C(/C=C/C(C)=C/C=C/C(C)=C/C(=O)O)C(C)(C)CCC1=O [AT-4-oxoRA, all-trans-4-oxo-RA]",<1%,0.02 ± 0.0 µg/g,3%,0.09 ± 0.04 µg/g,16%,0.09 ± 0.02 µg/g,5%,0.26 ± 0.10 µg/g,8%,0.30 ± 0.09 µg/g,12%,0.67 ± 0.25 µg/g,0%,0 nM,<1%,130 ± 40 nM,0%,0 nM,8%,0.21 ± 0.09 µg/g,"Plasma % of total retinoids at all time points ([1]; after 13cisRA 100 mg kg^−1): < 10%; % Total retinoids, tumour, 2 h ([1]; after ATRA 100 mg kg^−1 oral): 2%; Tumour concentration, 2 h ([1]; after ATRA 100 mg kg^−1 oral): 0.24 ± 0.06 µg/g; % Total retinoids, tumour, 6 h ([1]; after ATRA 100 mg kg^−1 oral): 17%; Tumour concentration, 6 h ([1]; after ATRA 100 mg kg^−1 oral): 0.79 ± 0.38 µg/g; % Total retinoids, liver, 0.5 h ([1]; after ATRA 100 mg kg^−1 oral): 11%; Liver concentration, 0.5 h ([1]; after ATRA 100 mg kg^−1 oral): 0.44 ± 0.12 µg/g; % Total retinoids, liver, 2 h ([1]; after ATRA 100 mg kg^−1 oral): 13%; Liver concentration, 2 h ([1]; after ATRA 100 mg kg^−1 oral): 1.07 ± 0.05 µg/g; % Total retinoids, liver, 6 h ([1]; after ATRA 100 mg kg^−1 oral): 45%; Liver concentration, 6 h ([1]; after ATRA 100 mg kg^−1 oral): 2.39 ± 0.72 µg/g; Liver concentration, 6 h ([1]; after ATRA 100 mg kg^−1 oral, listed as AT-4-oxo-RA): 2.39 µg/g; % Total retinoids, plasma, 0.5 h ([1]; after ATRA 100 mg kg^−1 oral): 4%; Plasma concentration, 0.5 h ([1]; after ATRA 100 mg kg^−1 oral): 600 ± 400 nM; % Total retinoids, plasma, 2 h ([1]; after ATRA 100 mg kg^−1 oral): 6%; Plasma concentration, 2 h ([1]; after ATRA 100 mg kg^−1 oral): 1700 ± 300 nM; % Total retinoids, plasma, 6 h ([1]; after ATRA 100 mg kg^−1 oral): 22%; Plasma concentration, 6 h ([1]; after ATRA 100 mg kg^−1 oral): 4000 ± 2400 nM"
